Results as given in PubChem BioAssay AID588822 (The Scripps Research Institute Molecular Screening Center, 2011).
Active and inactive are the calls of the source.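 Rule for the calls: active = half-maximal inhibitory concentration of 10 µM or lower; inactive = the rest.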

Target: Nuclear receptor subfamily 0 group B member 1 (Homo sapiens) (UniProt P51843)
Test: relief of Gal4-DAX1 transcriptional repression – cell-based, luminescence, HEK293, Gal4-DAX1 reporter, dose response, late-stage follow-up (AID 588822)
Settings: HEK293 Gal4-DAX1 luciferase reporter

Chain of Nuclear receptor subfamily 0 group B member 1 (Homo sapiens) (P51843 207-470 limits assumed): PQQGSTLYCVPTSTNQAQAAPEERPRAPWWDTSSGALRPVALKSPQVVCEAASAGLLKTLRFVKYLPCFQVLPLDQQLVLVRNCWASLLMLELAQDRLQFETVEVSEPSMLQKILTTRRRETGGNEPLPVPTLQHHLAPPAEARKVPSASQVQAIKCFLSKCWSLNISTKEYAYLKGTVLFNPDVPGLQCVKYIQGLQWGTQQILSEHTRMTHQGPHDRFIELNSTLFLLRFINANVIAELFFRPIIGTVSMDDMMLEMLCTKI

SMILES	IC50
Cn1c(=O)n(C)c2cc(C(=O)Nc3ccc4c(c3)OCCO4)ccc21	> 69.5 µM (inactive)
COc1cccc(C(=O)Nc2ccc3c(c2)OCCO3)c1	> 69.5 µM (inactive)
CN(C)c1cccc(C(=O)Nc2ccc3c(c2)OCCO3)c1	> 69.5 µM (inactive)
O=C(Nc1ccc2c(c1)OCO2)c1ccc(C2SCC(=O)N2Cc2ccco2)cc1 (centres undefined)	> 69.5 µM (inactive)
CSc1ccccc1C(=O)Nc1ccc2c(c1)OCO2	> 69.5 µM (inactive)
Cc1occc1C(=O)Nc1ccc2c(c1)OCO2	> 69.5 µM (inactive)
COc1cccc(C(=O)NC(C)c2cc(OC)ccc2OC)c1 (centres undefined)	> 69.5 µM (inactive)
O=C(Nc1ccc2c(c1)OCCO2)c1ccc2ccccc2c1	> 69.5 µM (inactive)
O=C(Nc1ccc2c(c1)OCO2)c1ccc(C2SCC(=O)N2Cc2ccccc2)cc1 (centres undefined)	> 69.5 µM (inactive)
O=C(Nc1ccc2c(c1)OCO2)c1cccs1	> 69.5 µM (inactive)
O=C(Nc1ccc2c(c1)OCO2)c1ccc2ccccc2c1	> 69.5 µM (inactive)
COc1cccc(C(=O)Nc2ccc3c(c2)OCO3)c1	> 69.5 µM (inactive)
COc1ccc(OC)c(C(C)NC(=O)c2ccc3c(c2)OCCO3)c1 (centres undefined)	> 69.5 µM (inactive)
Cn1c(=O)n(C)c2cc(C(=O)Nc3ccc4c(c3)OCO4)ccc21	> 69.5 µM (inactive)
O=C(Cc1cccs1)Nc1ccc2c(c1)OCO2	> 69.5 µM (inactive)
COc1ccc(OC)c(C(C)NC(=O)c2cccc3ccccc23)c1 (centres undefined)	> 69.5 µM (inactive)
Cc1cc(C(=O)Nc2ccc3c(c2)OCO3)cs1	> 69.5 µM (inactive)
CSc1ccccc1C(=O)Nc1ccc2c(c1)OCCO2	> 69.5 µM (inactive)

Second part, the compound after the results:

IC50	SMILES
> 69.5 µM (inactive)	COc1ccc(OC)c(C(C)NC(=O)c2ccccc2F)c1 (centres undefined)
> 69.5 µM (inactive)	COc1ccc(OC)c(C(C)NC(=O)c2ccc(Cl)cc2)c1 (centres undefined)
> 69.5 µM (inactive)	COc1ccc(OC)c(C(C)NC(=O)c2ccccc2)c1 (centres undefined)
> 69.5 µM (inactive)	COc1ccc(OC)c(C(C)NC(=O)c2ccccc2C)c1 (centres undefined)
> 69.5 µM (inactive)	COc1ccc(OC)c(C(C)NC(=O)c2c(F)cccc2Cl)c1 (centres undefined)
> 69.5 µM (inactive)	COc1ccc(OC)c(C(C)NC(=O)c2ccccc2Cl)c1 (centres undefined)
> 69.5 µM (inactive)	COc1ccc(OC)c(C(C)NC(=O)c2cccc(F)c2)c1 (centres undefined)
> 69.5 µM (inactive)	COc1ccc(OC)c(C(C)NC(=O)c2ccc(F)cc2)c1 (centres undefined)
> 69.5 µM (inactive)	COc1ccc(OC)c(C(C)NC(=O)c2cccc(C)c2)c1 (centres undefined)
> 69.5 µM (inactive)	COc1ccc(OC)c(C(C)NC(=O)c2ccc(C)cc2)c1 (centres undefined)
> 69.5 µM (inactive)	COc1ccc(OC)c(C(C)NC(=O)c2ccc(C(C)(C)C)cc2)c1 (centres undefined)
